Results reported in US20110015371A1 (Vertex Pharmaceuticals Incorporated, priority 1994, published 2011).
Non-standard residues stand in square brackets, D forms with d. Residues, ends and D or L forms follow the SMILES beside them. Pip = O=C(O)[C@@H]1CCCCN1

Assays:
[1] = test system: Human Peripheral Blood Mononuclear Cells (PBMC) or Enriched Adherent Mononuclear Cells; test: Cell assay: IL-1β assay with human PBMC or enriched adherent mononuclear cells; type: cell-based; settings: Homo sapiens, PBMC, LPS-stimulated cells, mature IL-1β in supernatant by ELISA
In short: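 Human PBMC (suspension at 6×10^6 cells/ml) or adherent monocytes enriched by 1 h plating (2.5−3.0×10^5 cells/well) were stimulated with 5 ng/ml LPS (final) plus compound (5-6 dilutions, 0.1% DMSO final) for 16-18 hr at 37° C. Mature IL-1β in supernatants quantified by ELISA; duplicate cultures, duplicate ELISAs.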

ICE [2] = biological target: T1, ICE (Homo sapiens, UniProt P29466); test: Enzyme assay with UV-visible substrate (Succinyl-Tyr-Val-Ala-Asp-pNitroanilide); type: biochemical
T1 sequence (P29466 120-297 limits assumed): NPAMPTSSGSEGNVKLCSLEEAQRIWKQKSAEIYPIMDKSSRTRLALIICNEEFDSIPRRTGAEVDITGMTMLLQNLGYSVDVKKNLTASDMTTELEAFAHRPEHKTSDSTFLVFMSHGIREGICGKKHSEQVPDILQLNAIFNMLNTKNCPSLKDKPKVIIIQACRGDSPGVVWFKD
T1 sequence (P29466 317-404 limits assumed): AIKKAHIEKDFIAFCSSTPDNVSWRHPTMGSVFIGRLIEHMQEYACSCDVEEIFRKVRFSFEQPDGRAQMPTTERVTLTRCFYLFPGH
In short: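 Enzyme preincubated with inhibitor in DMSO for 15 min at room temperature, then Succinyl-Tyr-Val-Ala-Asp-pNitroanilide added. pNA release followed at 405-603 nm, 37° C, over 20 minutes; rates (mOD/min) from linear fits. Ki and inhibition mode from fitting rates at varying inhibitor concentrations to standard kinetic equations.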

ICE [3] = biological target: T1, ICE; test: Enzyme assay with fluorescent substrate (Acetyl-Tyr-Val-Ala-Asp-AMC); type: biochemical; settings: Example 2 table, read-out: Fluorescence Ki
Protocol: 2. Enzyme Assay with Fluorescent Substrate
This assay is run essentially according to Thornberry et al. (Nature 356: 768-774 (1992)), using substrate 17 referenced in that article. The substrate is: Acetyl-Tyr-Val-Ala-Asp-amino-4-methylcoumarin (AMC). The following components are mixed:
The assay is run in a 96 well microtiter plate. Buffer and ICE are added to the wells. The components are left to incubate at 37° C. for 15 minutes in a temperature-controlled wellplate. After the 15 minute incubation, the reaction is started by adding substrate directly to the wells and the reaction is monitored @37° C. for 30 minutes by following the release of the AMC fluorophore using an excitation wavelength for 380 nm and an emission wavelength of 460 nm. A linear fit of the data for each well is performed and a rate is determined in fluorescence units per second.
For determination of enzyme inhibition constants (Ki) or the mode of inhibition (competitive, uncompetitive or noncompetitive), the rate data determined in the enzyme assays at varying inhibitor concentrations are computer-fit to standard enzyme kinetic equations (see I. H. Segel, Enzyme Kinetics, Wiley-Interscience, 1975).

Row | Compound | melting point | Ki (ICE [2]; Example 4 table) | IC50 ([1]; Example 4 table) | other results
1 | O=C[C@H](CC(=O)O)NC(=O)[C@@H]1CCCN1C(=O)c1nc(CCCc2ccccc2)c[nH]1 [Compound 21d, (3S)3-{N-[4-(3-Phenylpropyl)imidazole-2-carbonyl]-L-prolinyl}amino-4-oxo-butanoic acid] | 91 to 94 °C | – | 4.8 µM | –
2 | O=C[C@H](CC(=O)O)NC(=O)[C@@H]1CCCN2CCC[C@H](NC(=O)CCc3ccccc3)C(=O)N12 [Compound 47b, [3S,(1S,9S)]3-(Octahydro-10-oxo-9-(3-phenylpropionylamino)-6H-pyridazino-[1,2-a][1,2]diazepine-1-carboxamido)-4-oxobutanoic acid] | 87 to 90 °C | 0.027 µM | 1.8 µM | –
3 | CCCCc1ccc(NC(=O)CCc2ccccc2)c(=O)n1CC(=O)N[C@H](C=O)CC(=O)O [Compound 54d, 3(S)3-(6-Butyl-1,2-dihydro-2-oxo-3-(3-phenylpropionyl)amino-1-pyridyl)acetylamino-4-oxobutanoic acid] | 120 to 125 °C | 1 µM | – | –
4 | O=C[C@H](CC(=O)O)NC(=O)Cn1cccc(NC(=O)CCc2ccccc2)c1=O [Compound 54g, 3(S)3-(1,2-Dihydro-2-oxo-3-(3-phenylpropionyl)amino-1-pyridyl)acetylamino-4-oxobutanoic acid] | 140 to 145 °C (dec.) | 4.8 µM | > 20 µM | Ki (ICE [2]; Example 2 table): 4.8 µM
5 | O=C[C@H](CC(=O)O)NC(=O)Cn1c(Cc2ccccc2)ccc(NS(=O)(=O)CCc2ccccc2)c1=O [Compound 54j, 3(S)3-(6-Benzyl-1,2-dihydro-2-oxo-3-(2-phenylethane-sulphonyl)amino-1-pydridyl)acetylamino-4-oxobutanoic acid] | 102 to 105 °C | 0.28 µM | – | IC50 ([1]; Example 6 table): 10 µM
6 | O=C[C@H](CC(=O)O)NC(=O)Cn1c(Cc2ccccc2)ccc(NC(=O)OCCc2ccccc2)c1=O [Compound 54k, 3(S)3-(6-Benzyl-1,2-dihydro-2-oxo-3-(2-phenylethoxy)carbonylamino-1-pyridyl)acetylamino-4-oxobutanoic acid] | 84 to 86 °C | 0.085 µM | – | IC50 ([1]; Example 6 table): 6.6 µM
7 | O=C(O)CC(NC(=O)Cn1c(Cc2ccccc2)ccc(NC(=O)CCc2ccccc2)c1=O)C(=O)COC(=O)c1c(Cl)cccc1Cl (stereo not shown) [Compound 57b, N-2-(6-Benzyl-1,2-dihydro-2-oxo-3-(3-phenylpropionyl)amino-1-pyridyl)acetyl-3-amino-5-(2,6-dichloro-benzoyloxy)-4-oxo-pentanoic acid] | 116 to 120 °C (dec.) | – | – | IC50 ([1]; Example 6 table): 2.2 µM
8 | O=C(O)C[C@H](NC(=O)[C@@H]1CCCN2C(=O)CC[C@H](NC(=O)CCc3ccccc3)C(=O)N12)C(=O)CSCc1ccccc1Cl [Compound 125b, [3S(1S,9S)]-3-(6,10-dioxo-1,2,3,4,7,8,9,10-octahydro)-9-(3-phenylpropionyl-amino)-6H-pyridazine[1,2-a][1,2]diazepine-1-carboxamido-5-(2-chlorophenyl-methylthio)-4-oxopentanoic acid] | 76 to 80 °C | – | – | IC50 ([1]; Example 6 table): 0.3 µM; Ki (ICE [2]; Example 6 table): 0.06 µM
9 | CC(=O)N[C@@H](Cc1ccc(O)cc1)C(=O)N[C@H](C(=O)N1CCCC[C@H]1C(=O)N[C@H](C=O)CC(=O)O)C(C)C [H, N-(N-Acetyl-tyrosinyl-valinyl-pipecolyl)-3-amino-4-oxobutanoic acid] (Ac-YV[Pip]D-aldehyde) | – | – | – | IC50 ([1]; Example 2 table): 6 to 11 µM; Ki (ICE [3]): 0.0047 µM; Ki (ICE [2]; Example 2 table): 0.023 µM

Now from value to compound, other results behind:

Row | melting point | Ki (ICE [2]; Example 4 table) | Compound | IC50 ([1]; Example 4 table) | other results
10 | 113 to 115 °C | – | C[C@H](NC(=O)c1nc(Cc2ccccc2)c[nH]1)C(=O)N[C@H](C=O)CC(=O)O [Compound 20b, (3S)3-[N-(4-Benzylimidazole-2-carbonyl)-L-alaninyl]amino-4-oxobutanoic acid] | 16.4 µM | –
11 | 101 to 105 °C | – | COc1ccc(CCCc2c[nH]c(C(=O)N3CCC[C@H]3C(=O)N[C@H](C=O)CC(=O)O)n2)cc1 [Compound 21e, (3S)3-{N-[4-[3-(4-Methoxyphenyl)propyl]imidazole-2-carbonyl]-L-prolinyl}amino-4-oxobutanoic acid] | 2.9 µM | –
12 | 114 to 118 °C | – | O=C[C@H](CC(=O)O)NC(=O)[C@@H]1CCCN1C(=O)c1nc(CCCc2ccc(O)cc2)c[nH]1 [Compound 21f, (3S)3-{N-[4-[3-(4-Hydroxyphenyl)propyl]imidazole-2-carbonyl]-L-prolinyl}amino-4-oxobutanoic acid] | 2.9 µM | –
13 | 120 to 124 °C | 10 µM | C[C@H](NC(=O)c1cnc(CCc2ccc(C(F)(F)F)cc2)[nH]1)C(=O)N[C@H](C=O)CC(=O)O [Compound 33b, (3S)3-{N-[2-(2-[4-Trifluoromethylphenyl]ethyl)imidazole-4-carbonyl]-L-alaninyl}-amino-4-oxobutanoic acid] | > 30 µM | IC50 ([1]; Example 2 table): > 30 µM; Ki (ICE [2]; Example 2 table): 10 µM
14 | 109 to 112 °C | – | C[C@H](NC(=O)c1ccc(Cc2ccccc2)[nH]1)C(=O)N[C@H](C=O)CC(=O)O [Compound 36b, (3S)3-[N-(5-Benzylpyrrole-2-carbonyl)-L-alaninyl]amino-4-oxobutanoic acid] | 17 µM | –
15 | 129 to 138 °C | 3.5 µM | Cc1ccc(NC(=O)CCc2ccccc2)c(=O)n1CC(=O)N[C@H](C=O)CC(=O)O [Compound 54e, 3(S)3-(1,2-Dihydro-6-methyl-2-oxo-3-(3-phenylpropionyl)amino-1-pyridyl)acetylamino-4-oxobutanoic acid] | – | –
